According to publication PMC11356900, “Synthesis, Structural Properties and Biological Activities of Novel Hydrazones of 2-, 3-, 4-Iodobenzoic Acid” (Molecules, 2024):
Values after ≈ are worked out from the molar mass of the structure shown. Where two headings read alike, the source gives them in different places.

Columns and labels:
[1] = test system: Bacillus subtilis ATCC 6633; assay: Broth microdilution MIC/MBC; conditions: ATCC6633
[2] = test system: Micrococcus luteus ATCC 10240; assay: Broth microdilution MIC/MBC; conditions: Micrococcus luteus, ATCC10240
[3] = test system: Staphylococcus aureus ATCC 25923; assay: Broth microdilution MIC/MBC; conditions: Staphylococcus aureus, ATCC25923
[4] = test system: Staphylococcus epidermidis ATCC 12228; assay: Broth microdilution MIC/MBC; conditions: ATCC12228
[5] = test system: Bacillus cereus ATCC 10876; assay: Broth microdilution MIC/MBC; conditions: Bacillus cereus, ATCC10876
[6] = test system: Staphylococcus aureus ATCC 43300; assay: Broth microdilution MIC/MBC; conditions: ATCC43300 / MRSA
Candida spp. = assay: Broth microdilution, summary over reference yeasts; type: cell-based; conditions: for antifungal activity in words: reference yeasts from Candida spp.
Source text: (§1) Procedures of in vitro antimicrobial assays are described in Supplementary Materials.
(§2) 2. Microbiology – in vitro antimicrobial activity assays […]
(§3) using the broth microdilution method according to the European Committee on Antimicrobial Susceptibility Testing (EUCAST) and Clinical and Laboratory Standards Institute guidelines against a panel of reference and clinical or saprophytic strains of mi croorganisms, including the Gram-positive bacteria: Staphylococcus aureus ATCC 43300 (Methi-cillin Resistant S. aureus – MRSA), Staphylococcus aureus ATCC 29213 (Methicillin Susceptible S. aureus – MSSA), Staph-ylococcus epidermidis ATCC 12228, Micrococcus luteus ATCC 10240, Bacillus subtilis ATCC 6633 and Bacillus cereus ATCC 10876), Gram-negative bacteria: Bordetella bronchiseptica ATCC 4617, Escherichia coli ATCC 25922, Klebsiella pneumoniae ATCC 13883, Proteus mirabilis ATCC 12453, Salmonella typhimurium ATCC 14028 and Pseudomonas aeruginosa ATCC 9027, and fungi belonging to yeasts: Candida albicans ATCC 10231, Candida albicans ATCC 2091, Candida parapsilosis ATCC 22019, Candida glabrata ATCC 90030 and Candida krusei ATCC 14243. The microorganisms belonging to ATCC originated from American Type Culture Collection, routinely used for the evaluation of antimicrobials. All the used microbial cultures were first subcultured on nutrient agar or Sabouraud agar at 35°C for 18-24 h or 30°C for 24-48 h for bacteria […]
(§4) The surface of Mueller-Hinton agar (for bacteria) and RPMI 1640 with MOPS (for fungi) were inoculated with the suspensions of bacterial or fungal species. Microbial suspensions were prepared in sterile saline with an optical density of McFarland standard scale 0.5. The samples containing the compounds were dissolved in dimethyl sulfoxide (DMSO).
(§5) Furthermore, the bacterial and fungal suspensions put onto the Petri dishes with solid media containing 2 mg/mL of the tested compounds followed were incubated at 37°C for 24h and 30°C for 48h for bacteria and fungi, respectively.
(§6) The inhibition of microbial growth was estimated comparing with a control culture prepared without any tested sam- […]
(§7) antifungal compounds, respectively.
(§8) Subsequently, MIC (Minimal Inhibitory Concentration) of the compounds was examined by the microdilution broth method, using their two-fold dilutions in Mueller-Hinton broth (for bacteria) and RPMI 1640 broth with MOPS (for fungi) prepared in the 96-well polystyrene plates. The final concentrations of the compounds ranged from 1000 to 0.488 µg/mL. Microbial suspensions were prepared in 0.85% NaCl with an optical density of 0.5 McFarland standard. Next each bacterial or fungal suspension was added per each well containing broth and various concentrations of the exam-ined compounds. After incubation, the MIC was assessed spectrophotometrically as the lowest concentration of the […]
(§9) Appropriate DMSO, growth and sterile controls were carried out. The medium with no tested substances was used as a control The MBC (Minimal Bactericidal Concentration) and MFC (Minimal Fungicidal Concentration) are defined as the lowest concentration of the compounds that is required to kill a particular bacterial or fungal species. The MBC/MFC was determined by removing the culture used for the MIC determination from each well and spotted onto the appro-priate agar medium. The plates were incubated under appropriate conditions for bacteria and fungi. The lowest com-pounds concentration with no visible growth observed was assessed as a bactericidal/fungicidal concentration. All the experiments were repeated three times and the representative data are presented.
(§10) 1. European Committee for Antimicrobial Susceptibility Testing (EUCAST) Determination of minimum inhibitory con-centrations (MICs) of antibacterial agents by broth dilution. EUCAST discussion document E. Dis 5.1. Clin. Microbiol.
(§11) 2. Clinical and Laboratory Standards Institute. Reference method for broth dilution antifungal susceptibility testing of […]

[7] = test system: Staphylococcus aureus ATCC 29213; assay: Broth microdilution MIC/MBC; conditions: ATCC29213
[8] = test system: Candida albicans ATCC 2091; assay: Broth microdilution MIC/MFC; type: cell-based
Source text: as §1, §2, §3, §4, §5, §6, §7, §8, §9, §10, §11

[9] = test system: Candida glabrata ATCC 90030; assay: Broth microdilution MIC/MFC; type: cell-based
Source text: as §1, §2, §3, §4, §5, §6, §7, §8, §9, §10, §11

[10] = test system: Candida albicans ATCC 10231; assay: Broth microdilution MIC/MFC; type: cell-based
Source text: as §1, §2, §3, §4, §5, §6, §7, §8, §9, §10, §11

[11] = test system: Candida krusei ATCC 14243; assay: Broth microdilution MIC/MFC; type: cell-based
Source text: as §1, §2, §3, §4, §5, §6, §7, §8, §9, §10, §11

[12] = test system: Candida parapsilosis ATCC 22019; assay: Broth microdilution MIC/MFC; type: cell-based
Source text: as §1, §2, §3, §4, §5, §6, §7, §8, §9, §10, §11

Gram-positive bacteria = assay: Broth microdilution, summary over reference Gram-positive bacteria; type: cell-based; conditions: for antibacterial activity in words: reference Gram-positive bacteria / studied bacteria
Source text: as §1, §2, §3, §4, §5, §6, §7, §8, §9, §10, §11

[13] = Nakaseomyces glabratus, ATCC90030, read-out: MIC
[14] = Pichia kudriavzevii, ATCC14243, read-out: MFC
[15] = Pichia kudriavzevii, ATCC14243, read-out: MIC
[16] = Lodderomyces parapsilosis, ATCC22019, read-out: MIC
[17] = Nakaseomyces glabratus, ATCC90030, read-out: MFC
[18] = range over the reference Candida spp. strains

Compound | MIC [1] | MIC [2] | MIC [3] | MIC [4] | MIC [5] | MIC [6] | MBC [2] | antifungal activity in words (Candida spp.) | MIC [7] | MBC [3] | MIC ([8]; ATCC2091, read-out: MIC) | MIC [9, 13] | MFC ([10]; ATCC10231, read-out: MFC) | MIC ([10]; ATCC10231, read-out: MIC) | MFC [11, 14] | MIC [11, 15] | MIC [12, 16] | melting point | MBC [4] | antibacterial activity in words (Gram-positive bacteria) | other results
CC1(C)S[C@@H]2[C@H](NC(=O)[C@H](N)c3ccccc3)C(=O)N2[C@H]1C(=O)O [APC, ampicillin, reference compound] | 62.5 µg/mL (≈ 179 µM) | – | – | – | – | – | – | – | – | – | – | – | – | – | – | – | – | – | – | – | –
CO/N=C(\C(=O)N[C@@H]1C(=O)N2C(C(=O)O)=C(COC(N)=O)CS[C@H]12)c1ccco1 [CFX, cefuroxime, reference compound] | 15.6 µg/mL (≈ 36.8 µM) | 0.98 µg/mL (≈ 2.31 µM) | 0.49 µg/mL (≈ 1.15 µM) | 0.24 µg/mL (≈ 0.566 µM) | 31.2 µg/mL (≈ 73.6 µM) | – | – | – | – | – | – | – | – | – | – | – | – | – | – | – | –
NNC(=O)c1ccccc1I [Compound 4, 2-iodobenzohydrazide] | > 1000 µg/mL | 1000 µg/mL (≈ 3820 µM) | 500 µg/mL (≈ 1910 µM) | 1000 µg/mL (≈ 3820 µM) | > 1000 µg/mL | > 1000 µg/mL | > 1000 µg/mL | mild activity or were inactive | > 1000 µg/mL | > 1000 µg/mL | > 1000 µg/mL | > 1000 µg/mL | > 1000 µg/mL | 1000 µg/mL (≈ 3820 µM) | > 1000 µg/mL | 1000 µg/mL (≈ 3820 µM) | > 1000 µg/mL | 182 to 189 °C | > 1000 µg/mL | – | –
O=C(N/N=C/c1cccc([N+](=O)[O-])c1O)c1ccccc1I [Compound 7, N-[(2-hydroxy-3-nitrophenyl)methylidene]-2-iodobenzohydrazide] | 1000 µg/mL (≈ 2430 µM) | 1000 µg/mL (≈ 2430 µM) | 500 µg/mL (≈ 1220 µM) | 125 µg/mL (≈ 304 µM) | > 1000 µg/mL | > 1000 µg/mL | > 1000 µg/mL | mild activity or were inactive | > 1000 µg/mL | > 1000 µg/mL | > 1000 µg/mL | > 1000 µg/mL | > 1000 µg/mL | 1000 µg/mL (≈ 2430 µM) | – | > 1000 µg/mL | > 1000 µg/mL | 240 to 245 °C | 1000 µg/mL (≈ 2430 µM) | – | MBC [1]: > 1000 µg/mL
CCOc1cccc(/C=N/NC(=O)c2ccccc2I)c1O [Compound 10, N-[(3-ethoxy-2-hydroxyphenyl)methylidene]-2-iodobenzohydrazide] | > 1000 µg/mL | > 1000 µg/mL | > 1000 µg/mL | > 1000 µg/mL | > 1000 µg/mL | > 1000 µg/mL | – | mild activity or were inactive | > 1000 µg/mL | – | > 1000 µg/mL | 1000 µg/mL (≈ 2440 µM) | – | > 1000 µg/mL | > 1000 µg/mL | 1000 µg/mL (≈ 2440 µM) | > 1000 µg/mL | 167 to 170 °C | – | no antimicrobial effect | MFC [9, 17]: > 1000 µg/mL
O=C(N/N=C/c1cc(O)ccc1O)c1ccccc1I [Compound 11, N-[(2,5-dihydroxyphenyl)methylidene]-2-iodobenzohydrazide] | > 1000 µg/mL | > 1000 µg/mL | > 1000 µg/mL | > 1000 µg/mL | > 1000 µg/mL | > 1000 µg/mL | – | mild activity or were inactive | > 1000 µg/mL | – | > 1000 µg/mL | 1000 µg/mL (≈ 2620 µM) | > 1000 µg/mL | 1000 µg/mL (≈ 2620 µM) | – | > 1000 µg/mL | > 1000 µg/mL | 211 to 214 °C | – | no antimicrobial effect | MFC [9, 17]: > 1000 µg/mL
O=C(N/N=C/c1cc(Cl)cc(I)c1O)c1ccccc1I [Compound 12, N-[(5-chloro-2-hydroxy-3-iodophenyl)methylidene]-2-iodobenzohydrazide] | 1000 µg/mL (≈ 1900 µM) | 31.2 µg/mL (≈ 59.4 µM) | 125 µg/mL (≈ 237 µM) | 250 µg/mL (≈ 475 µM) | 500 µg/mL (≈ 950 µM) | 1000 µg/mL (≈ 1900 µM) | 250 µg/mL (≈ 475 µM) | moderate or mild | 1000 µg/mL (≈ 1900 µM) | > 1000 µg/mL | 500 µg/mL (≈ 950 µM) | 250 µg/mL (≈ 475 µM) | > 1000 µg/mL | 500 µg/mL (≈ 950 µM) | > 1000 µg/mL | 500 µg/mL (≈ 950 µM) | 1000 µg/mL (≈ 1900 µM) | 215 to 220 °C | 500 µg/mL (≈ 950 µM) | – | MBC [6]: > 1000 µg/mL; MBC [1]: > 1000 µg/mL; MFC (Candida spp.; [18]): ≥ 1000 µg/mL; MIC (Candida spp.; [18]): 250 to 1000 µg/mL (≈ 475 to 1900 µM); MIC (Gram-positive bacteria; range over the reference Gram-positive bacteria, read-out: MIC): 31.2 to 1000 µg/mL (≈ 59.4 to 1900 µM); MBC [7]: > 1000 µg/mL; MFC ([8]; ATCC2091, read-out: MFC): > 1000 µg/mL; MFC [9, 17]: > 1000 µg/mL; MFC ([12]; Lodderomyces parapsilosis, ATCC22019, read-out: MFC): > 1000 µg/mL; MBC [5]: > 1000 µg/mL
O=C(N/N=C/c1ccccc1O)c1cccc(I)c1 [Compound 16, N-[(2-hydroxyphenyl)methylidene]-3-iodobenzohydrazide] | – | – | – | – | – | – | – | – | – | – | – | – | – | – | – | – | – | 201 to 203 °C | – | no activity | –
O=C(N/N=C/c1cccc([N+](=O)[O-])c1O)c1ccc(I)cc1 [Compound 22, N-[(2-hydroxy-3-nitrophenyl)methylidene]-4-iodobenzohydrazide] | – | – | – | – | – | – | – | no antifungal activity | – | – | – | – | – | – | – | – | – | 198 to 202 °C | – | No antimicrobial effect | –
C[C@@H]1[C@H](O)[C@@H](C)/C=C/C=C/CC/C=C/C=C/C=C/C=C/C(O[C@H]2O[C@H](C)[C@@H](O)[C@H](N)[C@@H]2O)CC2O[C@](O)(CC(O)C(O)CCC(O)CC(O)CC(O)CC(=O)O[C@H]1C)CC(O)C2C(=O)O (stereo partly shown) [NY*, nystatin, reference compound] | – | – | – | – | – | – | – | – | – | – | – | – | – | – | – | – | – | – | – | – | MFC [8]: 0.24 µg/mL (≈ 0.259 µM); MFC/MIC [8]: 1; MIC [8]: 0.24 µg/mL (≈ 0.259 µM); MFC [9]: 0.48 µg/mL (≈ 0.518 µM); MFC/MIC [9]: 2; MIC [9]: 0.24 µg/mL (≈ 0.259 µM); MFC [10]: 0.48 µg/mL (≈ 0.518 µM); MFC/MIC [10]: 1; MIC [10]: 0.48 µg/mL (≈ 0.518 µM); MFC [11]: 0.24 µg/mL (≈ 0.259 µM); MFC/MIC [11]: 1; MIC [11]: 0.24 µg/mL (≈ 0.259 µM); MFC [12]: 0.48 µg/mL (≈ 0.518 µM); MFC/MIC [12]: 2; MIC [12]: 0.24 µg/mL (≈ 0.259 µM)
